{
  "source": "patent US5068247A",
  "about": "“2-aminopentanoic acid compounds and their use as immunosuppressants” (priority 1989, dated 1991)",
  "key": {"[1]": {"test_system": "IL-1 response of mouse thymocytes", "test": "suppression of the IL-1 response of mouse thymocytes", "assay_type": "cell-based", "details": "IL-1 50 U/ml", "experimental": "The thymus was resected from 6-week-old male C3H/HeN mice, and a single cell suspension was prepared using the serum-free RPMI1640 culture medium. After washing three times, the cell suspension was adjusted to a concentration of 1.5×10^7 cells/ml in the RPMI1640 culture medium supplemented with 10^-4 M 2-mercaptoethanol and 20% FCS. […] After termination of culture, 18.5 KBq/well of ^3 H-thymidine was added thereto. After culturing the suspension for further 18 hours, the cells were harvested by a cell harvester, and the radioactivity incorporated into the cells was measured by a liquid scintillation counter, which was used as an index of IL-1, IL-2 or IL-4 response. The suppression of IL-1, IL-2 or IL-4 response was evaluated by calculating the percent suppression by the following formula. [formula]"}, "[2]": {"test_system": "IL-2 response of mouse thymocytes", "test": "suppression of the IL-2 response of mouse thymocytes", "assay_type": "cell-based", "details": "for inhibition at 0.0001 µg/mL / inhibition at 0.001 µg/mL / inhibition at 0.01 µg/mL / inhibition at 0.1 µg/mL / inhibition at 1 µg/mL: Mus musculus, Thymocyte, 72 h", "experimental": "(§1) The thymus was resected from 6-week-old male C3H/HeN mice, and a single cell suspension was prepared using the serum-free RPMI1640 culture medium. After washing three times, the cell suspension was adjusted to a concentration of 1.5×10^7 cells/ml in the RPMI1640 culture medium supplemented with 10^-4 M 2-mercaptoethanol and 20% FCS. […] After culturing the suspension for further 18 hours, the cells were harvested by a cell harvester, and the radioactivity incorporated into the cells was measured by a liquid scintillation counter, which was used as an index of IL-1, IL-2 or IL-4 response. The suppression of IL-1, IL-2 or IL-4 response was evaluated by calculating the percent suppression by the following formula. [formula]"}, "[3]": {"test_system": "IL-4 response of mouse thymocytes", "test": "suppression of the IL-4 response of mouse thymocytes", "assay_type": "cell-based", "details": "for inhibition at 0.0001 µg/mL / inhibition at 0.001 µg/mL / inhibition at 0.01 µg/mL / inhibition at 0.1 µg/mL / inhibition at 1 µg/mL: Mus musculus, Thymocyte, 72 h", "experimental": "as §1"}, "[4]": {"test_system": "mouse acute graft versus host reaction (GVHR)", "test": "suppression of mouse acute graft versus host reaction (GVHR)", "assay_type": "in vivo", "experimental": "C57BL/6 mouse spleen cell suspension (2×10^7 cells/mouse) was injected into the right hind footpad of 5- to 7-week-old BDF1 female mice. Seven days after injection, right popliteal lymph node was resected to measure the weight thereof and compare the weight with that of the left popliteal lymph node of the control mice injected with physiological saline, which was used as an index of acute graft versus host reaction (GVHR). The compound of Example 5 was administered intraperitoneally at the dose of 0.3 mg/kg, orally at the dose of 1 mg/kg and intramuscularly at the doses of 0.3 and 1 mg/kg for 6 days from the day of injection, and at the seventh day, the weight of the right poples lymphonodus was measured."}},
  "data": [
    {"smiles": "CCCCCCCCCCCCC/C=C/C[C@@H](O)[C@H](O)[C@@](N)(CO)C(=O)O", "note": "[Example 5]", "values": [
      {"measurement": "3H-thymidine uptake", "setting": "[1]; 0.0001 μg/ml", "value": "10320 ± 1490", "unit": "cpm"},
      {"measurement": "3H-thymidine uptake", "setting": "[1]; 0.001 μg/ml", "value": "7756 ± 686", "unit": "cpm"},
      {"measurement": "3H-thymidine uptake", "setting": "[1]; 0.01 μg/ml", "value": "1239 ± 548", "unit": "cpm"},
      {"measurement": "3H-thymidine uptake", "setting": "[1]; 0.1 μg/ml", "value": "595 ± 144", "unit": "cpm"},
      {"measurement": "3H-thymidine uptake", "setting": "[1]; 1 μg/ml", "value": "419 ± 36", "unit": "cpm"},
      {"measurement": "inhibition at 0.0001 µg/mL", "setting": "[1]; Mus musculus, Thymocyte, 72 h, 0.0001 μg/ml", "value": 11.3, "unit": "%"},
      {"measurement": "inhibition at 0.001 µg/mL", "setting": "[1]; Mus musculus, Thymocyte, 72 h, 0.001 μg/ml", "value": 33.7, "unit": "%"},
      {"measurement": "inhibition at 0.01 µg/mL", "setting": "[1]; Mus musculus, Thymocyte, 72 h, 0.01 μg/ml", "value": 90.7, "unit": "%"},
      {"measurement": "inhibition at 0.1 µg/mL", "setting": "[1]; Mus musculus, Thymocyte, 72 h, 0.1 μg/ml", "value": 96.3, "unit": "%"},
      {"measurement": "inhibition at 1 µg/mL", "setting": "[1]; Mus musculus, Thymocyte, 72 h, 1 μg/ml", "value": 97.8, "unit": "%"},
      {"measurement": "3H-thymidine uptake", "setting": "[2]; 0.0001 μg/ml, IL-2 10 U/ml", "value": 2810, "unit": "cpm"},
      {"measurement": "3H-thymidine uptake", "setting": "[2]; 0.0001 μg/ml, IL-2 50 U/ml", "value": 63715, "unit": "cpm"},
      {"measurement": "3H-thymidine uptake", "setting": "[2]; 0.001 μg/ml, IL-2 10 U/ml", "value": 1660, "unit": "cpm"},
      {"measurement": "3H-thymidine uptake", "setting": "[2]; 0.001 μg/ml, IL-2 50 U/ml", "value": 57600, "unit": "cpm"},
      {"measurement": "3H-thymidine uptake", "setting": "[2]; 0.01 μg/ml, IL-2 10 U/ml", "value": 1285, "unit": "cpm"},
      {"measurement": "3H-thymidine uptake", "setting": "[2]; 0.01 μg/ml, IL-2 50 U/ml", "value": 32955, "unit": "cpm"},
      {"measurement": "3H-thymidine uptake", "setting": "[2]; 0.1 μg/ml, IL-2 10 U/ml", "value": 1125, "unit": "cpm"},
      {"measurement": "3H-thymidine uptake", "setting": "[2]; 0.1 μg/ml, IL-2 50 U/ml", "value": 24600, "unit": "cpm"},
      {"measurement": "3H-thymidine uptake", "setting": "[2]; 1 μg/ml, IL-2 10 U/ml", "value": 1300, "unit": "cpm"},
      {"measurement": "3H-thymidine uptake", "setting": "[2]; 1 μg/ml, IL-2 50 U/ml", "value": 25525, "unit": "cpm"},
      {"measurement": "inhibition at 0.0001 µg/mL", "setting": "[2]; 0.0001 μg/ml, IL-2 10 U/ml", "value": 0, "unit": "%"},
      {"measurement": "inhibition at 0.0001 µg/mL", "setting": "[2]; 0.0001 μg/ml, IL-2 50 U/ml", "value": 0, "unit": "%"},
      {"measurement": "inhibition at 0.001 µg/mL", "setting": "[2]; 0.001 μg/ml, IL-2 10 U/ml", "value": 46.7, "unit": "%"},
      {"measurement": "inhibition at 0.001 µg/mL", "setting": "[2]; 0.001 μg/ml, IL-2 50 U/ml", "value": 4.5, "unit": "%"},
      {"measurement": "inhibition at 0.01 µg/mL", "setting": "[2]; 0.01 μg/ml, IL-2 10 U/ml", "value": 62.1, "unit": "%"},
      {"measurement": "inhibition at 0.1 µg/mL", "setting": "[2]; 0.1 μg/ml, IL-2 10 U/ml", "value": 68.6, "unit": "%"},
      {"measurement": "inhibition at 0.1 µg/mL", "setting": "[2]; 0.1 μg/ml, IL-2 50 U/ml", "value": 59.4, "unit": "%"},
      {"measurement": "inhibition at 1 µg/mL", "setting": "[2]; 1 μg/ml, IL-2 10 U/ml", "value": 61.5, "unit": "%"},
      {"measurement": "inhibition at 1 µg/mL", "setting": "[2]; 1 μg/ml, IL-2 50 U/ml", "value": 58, "unit": "%"},
      {"measurement": "inhibition at 0.01 µg/mL", "setting": "[2]; 0.01 μg/ml, IL-2 50 U/ml", "value": 45.5, "unit": "%"},
      {"measurement": "3H-thymidine uptake", "setting": "[3]; 0.0001 μg/ml, IL-4 50 U/ml", "value": 3190, "unit": "cpm"},
      {"measurement": "3H-thymidine uptake", "setting": "[3]; 0.0001 μg/ml, IL-4 250 U/ml", "value": 45895, "unit": "cpm"},
      {"measurement": "3H-thymidine uptake", "setting": "[3]; 0.001 μg/ml, IL-4 50 U/ml", "value": 2025, "unit": "cpm"},
      {"measurement": "3H-thymidine uptake", "setting": "[3]; 0.001 μg/ml, IL-4 250 U/ml", "value": 39150, "unit": "cpm"},
      {"measurement": "3H-thymidine uptake", "setting": "[3]; 0.01 μg/ml, IL-4 50 U/ml", "value": 1385, "unit": "cpm"},
      {"measurement": "3H-thymidine uptake", "setting": "[3]; 0.01 μg/ml, IL-4 250 U/ml", "value": 33515, "unit": "cpm"},
      {"measurement": "3H-thymidine uptake", "setting": "[3]; 0.1 μg/ml, IL-4 50 U/ml", "value": 815, "unit": "cpm"},
      {"measurement": "3H-thymidine uptake", "setting": "[3]; 0.1 μg/ml, IL-4 250 U/ml", "value": 24655, "unit": "cpm"},
      {"measurement": "3H-thymidine uptake", "setting": "[3]; 1 μg/ml, IL-4 50 U/ml", "value": 885, "unit": "cpm"},
      {"measurement": "3H-thymidine uptake", "setting": "[3]; 1 μg/ml, IL-4 250 U/ml", "value": 21250, "unit": "cpm"},
      {"measurement": "inhibition at 0.0001 µg/mL", "setting": "[3]; 0.0001 μg/ml, IL-4 50 U/ml", "value": 0, "unit": "%"},
      {"measurement": "inhibition at 0.0001 µg/mL", "setting": "[3]; 0.0001 μg/ml, IL-4 250 U/ml", "value": 13.1, "unit": "%"},
      {"measurement": "inhibition at 0.001 µg/mL", "setting": "[3]; 0.001 μg/ml, IL-4 50 U/ml", "value": 8, "unit": "%"},
      {"measurement": "inhibition at 0.001 µg/mL", "setting": "[3]; 0.001 μg/ml, IL-4 250 U/ml", "value": 26, "unit": "%"},
      {"measurement": "inhibition at 0.01 µg/mL", "setting": "[3]; 0.01 μg/ml, IL-4 50 U/ml", "value": 40.6, "unit": "%"},
      {"measurement": "inhibition at 0.01 µg/mL", "setting": "[3]; 0.01 μg/ml, IL-4 250 U/ml", "value": 36.8, "unit": "%"},
      {"measurement": "inhibition at 0.1 µg/mL", "setting": "[3]; 0.1 μg/ml, IL-4 50 U/ml", "value": 69.7, "unit": "%"},
      {"measurement": "inhibition at 1 µg/mL", "setting": "[3]; 1 μg/ml, IL-4 50 U/ml", "value": 66.2, "unit": "%"},
      {"measurement": "inhibition at 1 µg/mL", "setting": "[3]; 1 μg/ml, IL-4 250 U/ml", "value": 60.2, "unit": "%"},
      {"measurement": "inhibition at 0.1 µg/mL", "setting": "[3]; 0.1 μg/ml, IL-4 250 U/ml", "value": 46.3, "unit": "%"},
      {"measurement": "Body weight 7 days after injection", "setting": "[4]; 0.3 mg/kg/day im × 6", "value": "20.0 ± 0.7", "unit": "g"},
      {"measurement": "Popliteal lymph node weight", "setting": "[4]; 0.3 mg/kg/day im × 6", "value": "2.88 ± 0.58", "unit": "mg"},
      {"measurement": "Suppression", "setting": "[4]; 0.3 mg/kg/day im × 6", "value": 60.0, "unit": "%"},
      {"measurement": "Body weight 7 days after injection", "setting": "[4]; 0.3 mg/kg/day ip × 6", "value": "19.0 ± 2.2", "unit": "g"},
      {"measurement": "Popliteal lymph node weight", "setting": "[4]; 0.3 mg/kg/day ip × 6", "value": "4.46 ± 1.72", "unit": "mg"},
      {"measurement": "Suppression", "setting": "[4]; 0.3 mg/kg/day ip × 6", "value": 38.1, "unit": "%"},
      {"measurement": "Body weight 7 days after injection", "setting": "[4]; 1 mg/kg/day im × 6", "value": "18.8 ± 1.3", "unit": "g"},
      {"measurement": "Popliteal lymph node weight", "setting": "[4]; 1 mg/kg/day im × 6", "value": "2.28 ± 0.48", "unit": "mg"},
      {"measurement": "Suppression", "setting": "[4]; 1 mg/kg/day im × 6", "value": 68.3, "unit": "%"},
      {"measurement": "Body weight 7 days after injection", "setting": "[4]; 1 mg/kg/day po × 6", "value": "20.4 ± 0.6", "unit": "g"},
      {"measurement": "Popliteal lymph node weight", "setting": "[4]; 1 mg/kg/day po × 6", "value": "3.30 ± 0.64", "unit": "mg"},
      {"measurement": "Suppression", "setting": "[4]; 1 mg/kg/day po × 6", "value": 54.2, "unit": "%"},
      {"measurement": "mouse acute graft versus host reaction (in words)", "setting": "[4]; intraperitoneal, oral or intramuscular", "value": "strongly suppresses the mouse acute graft versus host reaction (GVHR)"}
    ]}
  ]
}
